Assay results reported in US11021455B2, “Brominated furanone derivative, method for preparing same, and pharmaceutical composition containing same as active ingredient” (SEOUL NATIONAL UNIVERSITY R&DB FOUNDATION, priority 2016, dated 2021).
Like-named read-outs stand apart in the source and are kept apart here.

How the values were obtained:
[1] = system: IL-6 and IL-8 genes in HGF cells; assay: Effect on host cell immunity: IL-6 and IL-8 gene expression by real-time RT-PCR in HGF cells; format: cell-based, human
Procedure: (§1) To evaluate the effect of the compounds of the present invention on host cell (normal cell) immunity, the host cells were treated with the compounds of the present invention, followed by investigation of the activity of proinflammatory cytokines in host cells.
(§2) Particularly, in order to investigate whether or not the compounds of the present invention were able to induce inflammatory responses in host cells, the expression levels of proinflammatory cytokines including interleukin (IL)-6 and IL-8 were measured by real-time RT-PCR. THP-1 cells (1×10^6 cells/well) and HGF cells (2×10^5 cells/well) were distributed in a 6 well plate, followed by culture in the presence or absence of the compounds of examples (5, 6 and 13) or lipopolysaccharide (LPS, 1 mg) known as an endotoxin of Gram negative bacteria that causes a strong immune response in host cells at 37° C. for 24 hours. Upon completion of the 24 hour culture, RNA was extracted from the THP-1 and HGF cells by using Easy-Blue total RNA extraction kit (iNtRON Biotechnology, Seongnam, Korea) according to the manufacturer's protocol. A cDNA sample ([…]) synthesized from the extracted RNA ([…]) using MMLV reverse transcription kit (Promega, Madison, Wis.) was added to each primer pair (10 pM) and Power SYBR Green Master Mix (Applied Biosystems, Warrington, UK) at the reaction volume of […]. The mixture was applied to ABI PRISM 7500 Fast Real-Time PCR system (Applied Biosystems, Foster City, Calif., USA) by using thermocycling (thermocycling: denaturation at 95° C. for 15 seconds, annealing and extension at 60° C. for 1 minute). Glyceraldehyde 3-phosphate dehydrogenase (GAPDH) gene was used as a reference gene to normalize the gene expression levels of inflammatory cytokines including interleukin 6 (IL-6) and interleukin 8 (IL-8).

[2] = system: IL-6 and IL-8 genes in THP-1 cells; assay: Effect on host cell immunity: IL-6 and IL-8 gene expression by real-time RT-PCR in THP-1 cells; format: cell-based, human
Procedure: as §1, §2

[3] = system: biofilm formation of bacteria; assay: Evaluation of inhibition of biofilm formation (overall statements); format: cell-based; conditions: FIG. 20 to FIG. 21; 2000 nM, 200 nM and 20 nM
Procedure: (§3) Particularly, a sterilized cover glass slip (round shape with a radius of 12 mm) was placed on each well of a cell culture plate (24 well plate) by using a pincette. F. nucleatum A1-2 was added to cell culture medium (BHI medium+supplements) at the volume of 10% by the total volume.
(§4) The compounds of examples of the present invention were diluted to make the final concentration of each compound of 2 μM, 0.2 μM and 0.02 μM (BH1 medium: Brain Heart Infusion Medium, supplements: hemin (10 μg/ml) and vitamin K (0.2 μg/ml)).
(§5) The prepared culture solution was added to each well of the plate where the glass slip was placed, and the desired number of bacteria was inoculated into each well (F. nucleatum: 2×10^7 cells/ml, P. gingivalis: 4×10^8 cells/ml, T. forsythia: 2×10^8 cells/ml).
(§6) The prepared well plate was incubated at 37° C. under anaerobic condition (10% H2, 10% CO2 and 80% N2) for 48 hours for the culture of bacteria. The biofilm formed on the glass slip by the bacteria cultured in each group was quantitatively and comparatively analyzed using the following techniques.
The glass slip whereon biofilm had been formed was stained with 1% crystal violet solution for 10 minutes, followed by washing with PBS (phosphate buffered saline) three times, and decolorized with acetone-alcohol.
200 μl of the decolorizing solution containing crystal violet was added to each well of the microplate, and OD595 was measured using a microplate reader (Microplate reader, Model 550, Bio-Rad, USA). The measured values were compared among the groups (As the biofilm formation increased by the molecules secreted by F. nucleatum was suppressed by the compound of the present invention, the measured value was decreased.).

P. gingivalis biofilm = assay: Inhibition of biofilm formation, crystal violet staining (OD595); format: cell-based; conditions: 2000 nM, 200 nM and 20 nM; FIG. 21
Procedure: (§7) Particularly, a sterilized cover glass slip (round shape with a radius of 12 mm) was placed on each well of a cell culture plate (24 well plate) by using a pincette. F. nucleatum A1-2 was added to cell culture medium (BHI medium+supplements) at the volume of 10% by the total volume. The compounds of examples of the present invention were diluted to make the final concentration of each compound of 2 μM, 0.2 μM and 0.02 μM (BH1 medium: Brain Heart Infusion Medium, supplements: hemin (10 μg/ml) and vitamin K (0.2 μg/ml)). The prepared culture solution was added to each well of the plate where the glass slip was placed, and the desired number of bacteria was inoculated into each well (F. nucleatum: 2×10^7 cells/ml, P. gingivalis: 4×10^8 cells/ml, T. forsythia: 2×10^8 cells/ml). For the positive control not treated with the compounds of examples of the present invention (F.n AI-2), F. nucleatum AI-2 was added to the cell culture medium (BHI+supplements) and then the same number of cells was inoculated. In the meantime, for the negative control treated neither the compound of the present invention nor F. nucleatum A1-2 (Fn), PBS was added to the cell culture medium (BHI+supplements) instead of F. nucleatum A1-2 at the same volume as the above. The prepared well plate was incubated at 37° C. under anaerobic condition (10% H2, 10% CO2 and 80% N2) for 48 hours for the culture of bacteria. The biofilm formed on the glass slip by the bacteria cultured in each group was quantitatively and comparatively analyzed using the following techniques. […] 200 μl of the decolorizing solution containing crystal violet was added to each well of the microplate, and OD595 was measured using a microplate reader (Microplate reader, Model 550, Bio-Rad, USA). The measured values were compared among the groups (As the biofilm formation increased by the molecules secreted by F. nucleatum was suppressed by the compound of the present invention, the measured value was decreased.).

[4] = system: biofilms of F. nucleatum, givalis and T. forsythia; assay: Biofilm morphology, confocal scanning laser microscope technique; format: cell-based; conditions: live/dead staining; FIG. 22
Procedure: as §3, §4, §5, §6
The glass slip whereon biofilm had been formed was stained by using a live/dead-BacLight bacterial viability kit (Invitrogen, Grand Island, N.Y., USA), and the morphology of the biofilm was observed under a confocal scanning laser microscope and compared.

F. nucleatum biofilm = assay: Inhibition of biofilm formation, crystal violet staining (OD595); format: cell-based; conditions: 20 nM; compared with furanone treated control group; FIG. 20
Procedure: as §7

induction of IL-6 and IL-8 gene expression (inflammatory response) in THP-1 cells [2] | Molecule | biofilm inhibitory activity (general statement) [3] | induction of IL-6 and IL-8 gene expression (inflammatory response) in HGF cells ([1]; human, 24 h) | also measured
 | lipopolysaccharide [LPS, reference compound] |  |  | induction of IL-6 and IL-8 gene expression (inflammatory response) in HGF cells ([1]; 24 hours, normalised to GAPDH, FIG. 27): induced the expressions of both cytokines; induction of IL-6 and IL-8 gene expression (inflammatory response) in THP-1 cells ([2]; 24 hours, normalised to GAPDH, FIG. 26): induced the expressions of IL-6 and IL-8 genes
not to induce inflammatory responses | Cc1cccc2c1C(=O)OC2=C(Br)Br [Example 13, 3-(dibromomethylene)-7-methylisobenzofuran-1(3H)-one] | particularly excellent in inhibiting biofilm formation | did not induce the expressions of IL-6 and IL-8 genes | 
not to induce inflammatory responses | Cc1ccc2c(c1)C(=C(Br)Br)OC2=O [Example 6, 3-(dibromomethylene)-5-methylisobenzofuran-1(3H)-one] | particularly excellent in inhibiting biofilm formation | did not induce the expressions of IL-6 and IL-8 genes | 
 | O=C1OC(=C(Br)Br)C2=C1CCCC2 [Example 3, 3-(dibromomethylene)-4,5,6,7-tetrahydroisobenzofuran-1(3H)-one] |  |  | P. gingivalis biofilm inhibitory activity (OD595) (P. gingivalis biofilm): excellent P. gingivalis biofilm inhibitory activity
 | O=C1OC(=C(Br)Br)c2ccccc21 [Example 2, 3-(dibromomethylene)isobenzofuran-1(3H)-one] |  |  | inhibition of biofilm formation seen in confocal photographs [4]: inhibited the biofilm formation of bacteria
 | O=C1OC(=C(Br)Br)C2=C1CCC2 [Example 4, 3-(dibromomethylene)-5,6-dihydro-3H-cyclopenta[c]furan-1(4H)-one] |  |  | F. nucleatum biofilm inhibitory activity (OD595) (F. nucleatum biofilm): superior F. nucleatum biofilm inhibitory activity at the concentration of 20 nM to the furanone treated control group; inhibition of biofilm formation seen in confocal photographs [4]: inhibited the biofilm formation of bacteria
not to induce inflammatory responses | O=C1OC(=C(Br)Br)C2CCCC12 (stereo not shown) [Example 5, 3-(dibromomethylene)-hexahydrocyclopenta[c]furan-1(3H)-one] | particularly excellent in inhibiting biofilm formation | did not induce the expressions of IL-6 and IL-8 genes | F. nucleatum biofilm inhibitory activity (OD595) (F. nucleatum biofilm): superior F. nucleatum biofilm inhibitory activity at the concentration of 20 nM to the furanone treated control group
